Here are results for eight compounds from ChEMBL document CHEMBL1201862, “PubChem BioAssay data set” (2004).

The structures appear in SMILES notation.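 The compound was tested at five concentrations on cells cultured in 96-well plates, with a 48-hour exposure period. The concentration for 50% growth inhibition is given as GI50.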 Calls of active or inactive are those of the source. Rule as the data show it: active = GI50 up to about 1.1 µM and inactive = higher.

Holding throughout (test): NCI anticancer screen, dose series, 48 h
Assay [1] concerns HCT-116.
For assay [2], the system named is SR.
The subject of assay [3] is SF-295.
The subject of assay [4] is T47D.
Assay [5] deals with LOX IMVI.
Assay [6] concerns DU-145.
The subject of assay [7] is SN12C.
Assay [8] relates to A498.
The subject of assay [9] is SK-MEL-28.
Assay [10] concerns KM12.
The test system of assay [11] is NCI-H522.
For assay [12], the system named is SK-MEL-5.
Assay [13] concerns UO-31.
Assay [14] concerns SK-OV-3.
In assay [15] the test system is SF-268.
Assay [16] relates to NCI-H226.
Assay [17] relates to CCRF-CEM.
In assay [18] the test system is MCF7.
For assay [19], the system named is HCT-15.
The test system of assay [20] is HL-60.

For `O=C(Nc1ccc(Cl)c(Cl)c1)C(=O)C(C1OC(=O)c2ccccc21)[N+](=O)[O-]` (stereo not drawn), the GI50 in assay [1], in assay [2], in assay [3], in assay [4], in assay [5] and in assay [6] was > 100 µM (inactive) throughout. The GI50 in [7], in assay [8], in [9], in assay [10], in assay [11] and in assay [12] was > 100 µM (inactive) throughout. Moreover, the GI50 in assay [13], in assay [14], in assay [15], in assay [16], in [17] and in assay [18] was > 100 µM (inactive) throughout. Besides, the GI50 in assay [19] is more than 100 µM.
For `CNCCCNc1c2ccccc2nc2cccc([N+](=O)[O-])c12`, the GI50 is 0.00242 µM (active) in assay [1]; 0.0034 µM (active) in assay [3]; 0.00229 µM (active) in assay [4]; 0.00604 µM (active) in [5]; 0.00378 µM (active) in [6]; 0.00561 µM (active) in assay [7]. Further, the GI50 in [8] was 0.0029 µM (active); in [9] it was 0.0109 µM (active); in [20] it was 0.01 µM (active); in assay [10], 0.0064 µM (active); in [11], 0.000449 µM (active); in assay [12], 0.00507 µM (active). Also, the GI50 in assay [13] was 0.00845 µM (active); in assay [14] it was 0.0103 µM (active); in [15], 0.00225 µM (active); in assay [16], 0.018 µM (active); in [17], 0.00986 µM (active); in assay [18], 0.00143 µM (active). In assay [19], the GI50 is 0.00957 µM.
For `C=C(C)CCC(O)[C@](C)(O)[C@H]1[C@H](O)C[C@@]2(C)[C@@H]3CCc4c(cc(OC5OC(CO)C(O)C(O)C5O)c(O)c4C)C3(C)C(=O)C[C@]12C` (stereo partly drawn), the GI50 in assay [1], in assay [2], in assay [3], in assay [4], in assay [5] and in assay [6] was > 100 µM (inactive) in each case. Besides, the GI50 in [7] is > 100 µM (inactive); in [8], > 100 µM (inactive); in assay [9], > 100 µM (inactive); in assay [10], > 100 µM (inactive); in [11], > 100 µM (inactive); in assay [12], > 10 µM (inactive). Also, the GI50 in assay [13], in assay [14], in assay [15], in assay [16], in assay [17] and in assay [18] was > 100 µM (inactive) throughout. In assay [19], this compound showed a GI50 of more than 100 µM.
In the case of `CC(=NNC(=S)Nc1ccccc1)c1cccc(C(C)=NNC(=S)Nc2ccccc2)n1`, the GI50 in assay [1] was 3.32 µM (inactive); in assay [3], 3.62 µM (inactive); in assay [4], 5.96 µM (inactive); in assay [5], 2.24 µM (inactive); in assay [6] it was > 20.1 µM (inactive); in assay [7], 4.48 µM (inactive). Besides, the GI50 in [8] is 7.55 µM (inactive); in assay [9], > 100 µM (inactive); in assay [20] it was 0.189 µM (active); in assay [10], 3.38 µM (inactive); in [11], 5.35 µM (inactive); in assay [12], 2.64 µM (inactive). Further, the GI50 in assay [13] is 2.34 µM (inactive); in [14], 5.98 µM (inactive); in assay [16], 1.06 µM (active); in assay [17], 1.74 µM (inactive); in assay [18], 3.11 µM (inactive); in assay [19], 4.58 µM.
Take `COC(=O)[C@]12CCC(=O)N1[C@H](C(=O)O)Cc1c2[nH]c2ccccc12`: the GI50 in [1], in [2], in [3], in assay [4], in assay [5] and in assay [6] was > 100 µM (inactive) each time. In addition, the GI50 in [7], in assay [8], in [9], in [10], in assay [11] and in [12] was > 100 µM (inactive) each time. The GI50 in assay [13] was > 100 µM (inactive); in [14], > 100 µM (inactive); in assay [15], > 100 µM (inactive); in [17] it was > 100 µM (inactive); in assay [18], > 100 µM (inactive); in assay [19], more than 100 µM.
`O=C1CCC(=O)N1CNc1ccc2c(c1)Sc1ccccc1O2`: the GI50 in [1] is 21.3 µM (inactive); in [3] it was 29.4 µM (inactive); in [4], 25.2 µM (inactive); in assay [5] it was 27.3 µM (inactive); in [6] it was 32.5 µM (inactive); in assay [7], 27.6 µM (inactive). In addition, the GI50 in assay [8] is 53 µM (inactive); in [9] it was 87.3 µM (inactive); in assay [20], 4.99 µM (inactive); in assay [10] it was 36.7 µM (inactive); in [11], 23.8 µM (inactive); in [12] it was 26.4 µM (inactive). Also, the GI50 was 23.2 µM (inactive) in assay [13]; 44.8 µM (inactive) in assay [15]; 20.4 µM (inactive) in [16]; 29 µM (inactive) in assay [17]; 43.1 µM (inactive) in assay [18]; 28.4 µM in assay [19].
As for `c1ccc2[nH]c(-c3cscn3)nc2c1` [THIABENDAZOLE], the GI50 in [1], in [3], in assay [4], in [5], in assay [6] and in [7] was > 100 µM (inactive) each time. Also, the GI50 in assay [8], in assay [9], in assay [20], in assay [10], in assay [11] and in assay [12] was > 100 µM (inactive) in each case. For the same compound, the GI50 was > 100 µM (inactive) in assay [14]; > 100 µM (inactive) in assay [15]; > 100 µM (inactive) in assay [16]; > 100 µM (inactive) in assay [17]; > 100 µM (inactive) in assay [18]; more than 100 µM in assay [19].
For the compound `COc1ncc(C#CC(=O)c2ccccc2)c(OC)n1`, the GI50 was 4.95 µM (inactive) in assay [1]; 16.6 µM (inactive) in [3]; 5.83 µM (inactive) in assay [4]; 0.815 µM (active) in assay [5]; 8.07 µM (inactive) in [6]; 1.4 µM (inactive) in assay [7]. Also, the GI50 was 17.9 µM (inactive) in assay [8]; 5.11 µM (inactive) in assay [9]; 1.23 µM (inactive) in [20]; 6.85 µM (inactive) in assay [10]; 1.27 µM (inactive) in assay [11]; 2.09 µM (inactive) in assay [12]. For the same compound, the GI50 in assay [13] is 2.03 µM (inactive); in [14] it was 19.7 µM (inactive); in [15], 10.4 µM (inactive); in [16] it was 2.07 µM (inactive); in assay [17], 0.183 µM (active); in [18] it was 0.378 µM (active). Besides, in [19], the GI50 is 1.37 µM.
